Assay results reported in patent US20140135310A1, “SULPHONAMIDE DERIVATIVES OF ALICYCLIC AMINES FOR THE TREATMENT OF CENTRAL NERVOUS SYSTEM DISEASES” (Adamed Sp. z o.o., priority 2011, published 2014).

Legend:
[1] = target: dopaminergic receptors D3 (Homo sapiens, UniProt P35462); assay: Radioligand binding assay, dopaminergic D3 receptors; settings: test compound 1×10^−6 M
Method in brief: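 Scintillation read-out. Specific = total − nonspecific (excess cold ligand). Data as % of control specific binding / % inhibition; IC50 by Hill fit; Ki = IC50/(1+L/KD), KD from Scatchard plot.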

receptors D4.4 = target: T1, receptors D4.4 (Homo sapiens, UniProt P21917); assay: Radioligand binding assay, dopaminergic D4 (D4.4) receptors; settings: test compound 1×10^−6 M
T1 sequence (P21917 1-419): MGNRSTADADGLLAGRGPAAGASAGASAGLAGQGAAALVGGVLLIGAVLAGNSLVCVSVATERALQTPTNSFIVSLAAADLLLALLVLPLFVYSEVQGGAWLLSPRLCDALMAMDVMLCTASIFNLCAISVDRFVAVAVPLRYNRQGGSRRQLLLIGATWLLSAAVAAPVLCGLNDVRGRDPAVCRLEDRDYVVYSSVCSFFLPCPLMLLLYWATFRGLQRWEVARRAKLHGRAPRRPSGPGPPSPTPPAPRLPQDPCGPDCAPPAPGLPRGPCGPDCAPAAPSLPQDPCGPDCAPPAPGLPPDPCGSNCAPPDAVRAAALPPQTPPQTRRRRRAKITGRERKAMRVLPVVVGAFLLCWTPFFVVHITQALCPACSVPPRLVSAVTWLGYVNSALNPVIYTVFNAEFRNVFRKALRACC
Description: (§1) The specific ligand binding to the receptors is defined as the difference between the total binding and the non-specific binding determined in the presence of the excess of unlabelled ligand.
(§2) The results are expressed as a percent of control specific binding ((measured specific binding/control specific binding)×100) and as a percent inhibition of control specific binding (100−((measured specific binding/control specific binding)×100)) obtained in the presence of the test compounds. The specific ligand binding to the receptors is defined as the difference between the total binding and the nonspecific binding determined in the presence of an excess of unlabelled ligand. Scintillation counting was the method of detection of ligand binding. The IC50 values (concentration causing a half-maximal inhibition of control specific binding) were determined by non-linear regression analysis of the competition curves generated with mean replicate values using Hill equation curve fitting (Y=D+[(A−D)/(1+(C/C50)nH)], where Y=specific binding, D=minimum specific binding, A=maximum specific binding, C=compound concentration, C50=IC50, and nH=slope factor). This analysis was performed using a software developed at Cerep (Hill software) and validated by comparison with data generated by the commercial software SigmaPlot® 4.0 for Windows® (© 1997 by SPSS Inc.). The inhibition constants (Ki) were calculated using the Cheng Prusoff equation (Ki=IC50/(1+(L/KD)), where L=concentration of radioligand in the assay, and KD=affinity of the radioligand for the receptor). A scatchard plot was used to determine the Kd.
Experimental conditions for tests are given in Table 1, the results of tests for representative compounds are given in Tables 2a and 2b (receptors D2 and D3) and in Table 3 (receptors D4).

5-HT2A receptor = target: T2, 5-HT2A receptor (Homo sapiens, UniProt P28223); assay: Radioligand binding assay, serotoninergic 5-HT2A receptors; settings: for Ki: read-out: Inhibition constants Ki, 5-HT2A
T2 construct: purchased PerkinElmer
T2 sequence (P28223 whole entry): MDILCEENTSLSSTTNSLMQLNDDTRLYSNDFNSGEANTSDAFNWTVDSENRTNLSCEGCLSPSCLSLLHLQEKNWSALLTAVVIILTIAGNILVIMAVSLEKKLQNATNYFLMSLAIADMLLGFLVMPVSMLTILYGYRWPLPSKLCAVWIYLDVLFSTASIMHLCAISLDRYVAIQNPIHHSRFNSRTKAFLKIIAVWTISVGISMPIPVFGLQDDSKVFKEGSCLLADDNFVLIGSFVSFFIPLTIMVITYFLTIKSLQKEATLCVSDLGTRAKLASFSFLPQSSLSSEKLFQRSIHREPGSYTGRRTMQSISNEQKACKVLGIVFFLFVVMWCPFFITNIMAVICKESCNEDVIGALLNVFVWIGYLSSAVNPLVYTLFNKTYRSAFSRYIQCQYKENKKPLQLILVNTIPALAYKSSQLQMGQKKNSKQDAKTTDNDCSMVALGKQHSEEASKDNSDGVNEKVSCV
Method in brief: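 Competition curves from scintillation-counted specific binding (total minus binding with excess unlabelled ligand) were Hill-fitted to give IC50, converted to Ki via Cheng-Prusoff using Scatchard-derived Kd.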

5-HT2C receptor = target: T3, 5-HT2C receptor (Homo sapiens, UniProt P28335); assay: Radioligand binding assay, serotoninergic 5-HT2C receptors; settings: test compound 1×10^−6 M
T3 construct: expressed in transfected cells; host or cells: HEK-293 cells
T3 sequence (P28335 33-458): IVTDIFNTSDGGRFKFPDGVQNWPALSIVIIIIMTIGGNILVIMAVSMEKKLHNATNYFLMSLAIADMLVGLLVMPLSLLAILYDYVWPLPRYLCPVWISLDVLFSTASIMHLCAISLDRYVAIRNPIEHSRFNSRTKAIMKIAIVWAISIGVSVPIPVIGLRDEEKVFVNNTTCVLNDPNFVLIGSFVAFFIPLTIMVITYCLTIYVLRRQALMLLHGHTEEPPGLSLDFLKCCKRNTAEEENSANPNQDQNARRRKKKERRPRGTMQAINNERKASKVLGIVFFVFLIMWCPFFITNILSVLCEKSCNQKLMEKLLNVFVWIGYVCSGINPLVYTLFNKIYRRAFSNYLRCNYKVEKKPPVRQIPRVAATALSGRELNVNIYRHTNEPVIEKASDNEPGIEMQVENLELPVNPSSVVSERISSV
Description: as §1, §2
Experimental conditions for tests are given in Table 4, and results of tests for representative compounds of the invention are given in Table 5a and 5b (receptors 5-HT1A, 5-HT2A, 5-HT6 and 5-HT7) and in Table 6 (receptors 5-HT2C).

5-HT6 receptor = target: T4, 5-HT6 receptor (Homo sapiens, UniProt P50406); assay: Radioligand binding assay, serotoninergic 5-HT6 receptors; settings: for Ki: read-out: Inhibition constants Ki, 5-HT6;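 as to 5-HT6 [%]: test compound at 1 µM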
T4 construct: purchased PerkinElmer
T4 sequence (P50406 whole entry): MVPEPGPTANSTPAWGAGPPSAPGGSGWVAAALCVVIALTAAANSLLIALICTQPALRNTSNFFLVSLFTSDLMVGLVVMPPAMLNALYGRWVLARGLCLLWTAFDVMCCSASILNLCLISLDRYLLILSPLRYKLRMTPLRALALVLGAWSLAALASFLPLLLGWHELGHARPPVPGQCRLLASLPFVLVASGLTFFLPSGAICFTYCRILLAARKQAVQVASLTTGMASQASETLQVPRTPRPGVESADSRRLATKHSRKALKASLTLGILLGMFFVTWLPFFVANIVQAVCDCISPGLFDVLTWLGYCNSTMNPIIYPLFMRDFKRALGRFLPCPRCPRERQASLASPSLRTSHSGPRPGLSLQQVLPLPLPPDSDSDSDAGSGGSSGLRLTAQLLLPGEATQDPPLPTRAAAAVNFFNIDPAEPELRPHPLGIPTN
Method in brief: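 Values are Ki from Cheng–Prusoff, taking IC50 from Hill nonlinear regression of competition curves and KD from a Scatchard plot. Specific binding was total minus binding with excess unlabelled ligand. Radioligand displacement was detected by scintillation counting, and data were also reported as percent of control specific binding.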

5-HT7 receptor = target: T5, 5-HT7 receptor (Homo sapiens, UniProt P34969); assay: Radioligand binding assay, serotoninergic 5-HT7 receptors; settings: binding assay result in %, Table 5a;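 also: test compound at 1 µM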
T5 construct: purchased PerkinElmer
T5 sequence (P34969 whole entry): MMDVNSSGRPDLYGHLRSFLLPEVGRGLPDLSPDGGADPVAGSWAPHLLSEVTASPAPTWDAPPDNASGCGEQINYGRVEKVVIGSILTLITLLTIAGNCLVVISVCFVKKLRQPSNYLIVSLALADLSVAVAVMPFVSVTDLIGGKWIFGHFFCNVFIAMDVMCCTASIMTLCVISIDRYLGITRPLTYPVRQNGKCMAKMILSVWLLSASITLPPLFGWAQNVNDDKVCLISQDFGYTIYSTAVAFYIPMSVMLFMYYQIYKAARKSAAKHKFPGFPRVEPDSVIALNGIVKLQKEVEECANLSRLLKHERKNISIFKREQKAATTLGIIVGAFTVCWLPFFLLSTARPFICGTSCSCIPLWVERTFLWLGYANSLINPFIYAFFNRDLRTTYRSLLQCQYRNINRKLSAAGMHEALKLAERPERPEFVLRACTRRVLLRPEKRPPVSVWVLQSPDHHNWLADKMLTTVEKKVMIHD
Method in brief: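 Ki values used the Cheng–Prusoff equation, with KD from Scatchard analysis, applied to IC50 from Hill fits of human 5-HT7 radioligand competition curves. Bound radioligand was counted by scintillation, and excess unlabelled ligand set the non-specific binding.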

M3 muscarinic receptors = target: T6, M3 muscarinic receptors (Homo sapiens, UniProt P20309); assay: Radioligand binding assay, muscarinic M3 receptors; settings: test compound 1×10^−6 M
T6 construct: expressed in transfected cells; host or cells: CHO cells
T6 sequence (P20309 whole entry): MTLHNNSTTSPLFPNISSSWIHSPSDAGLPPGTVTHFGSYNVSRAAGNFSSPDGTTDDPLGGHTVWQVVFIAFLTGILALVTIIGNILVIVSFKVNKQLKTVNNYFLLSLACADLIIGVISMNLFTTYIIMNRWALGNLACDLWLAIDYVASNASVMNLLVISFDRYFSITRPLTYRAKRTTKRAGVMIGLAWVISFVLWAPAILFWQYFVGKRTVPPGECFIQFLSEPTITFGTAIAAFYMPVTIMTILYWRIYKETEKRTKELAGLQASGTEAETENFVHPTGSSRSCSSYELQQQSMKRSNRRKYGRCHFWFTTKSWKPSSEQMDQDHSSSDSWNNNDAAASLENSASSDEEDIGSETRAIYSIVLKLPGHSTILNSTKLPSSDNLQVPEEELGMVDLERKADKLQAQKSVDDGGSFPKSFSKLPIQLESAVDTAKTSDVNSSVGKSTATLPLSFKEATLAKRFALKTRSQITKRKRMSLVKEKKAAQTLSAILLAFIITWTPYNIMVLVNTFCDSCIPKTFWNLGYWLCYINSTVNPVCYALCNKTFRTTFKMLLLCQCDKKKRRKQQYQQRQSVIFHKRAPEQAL
Description: as §1, §2
Experimental conditions for tests are given in Table 10, and results of tests for representative compounds are given in Table 11.

[2] = target: T7, H1 histaminergic receptors (Homo sapiens, UniProt P35367); assay: Radioligand binding assay, histaminergic H1 receptors; settings: human recombinant (HEK-293 cells), [3H]pyrilamine 1 nM
T7 construct: expressed in transfected cells; host or cells: HEK-293 cells
T7 sequence (P35367 whole entry): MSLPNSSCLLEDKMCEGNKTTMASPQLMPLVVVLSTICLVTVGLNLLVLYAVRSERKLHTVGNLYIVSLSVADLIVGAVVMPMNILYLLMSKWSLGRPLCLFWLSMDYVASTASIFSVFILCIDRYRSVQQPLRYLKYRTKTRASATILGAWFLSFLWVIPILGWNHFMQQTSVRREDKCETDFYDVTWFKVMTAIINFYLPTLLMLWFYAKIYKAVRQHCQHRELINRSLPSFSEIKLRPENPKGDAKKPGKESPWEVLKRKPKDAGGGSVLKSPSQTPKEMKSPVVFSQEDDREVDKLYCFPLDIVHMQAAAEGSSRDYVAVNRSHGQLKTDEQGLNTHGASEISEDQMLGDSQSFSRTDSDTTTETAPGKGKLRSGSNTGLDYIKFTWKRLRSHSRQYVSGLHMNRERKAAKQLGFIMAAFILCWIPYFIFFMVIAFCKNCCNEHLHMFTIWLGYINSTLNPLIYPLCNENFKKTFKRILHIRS
Description: as §1, §2
Experimental conditions for tests are given in Table 14, and results of tests for representative compounds are presented in Table 15.

[3] = binding assay result in %, Table 5a

dopaminergic receptors D3, sequence (P35462 whole entry): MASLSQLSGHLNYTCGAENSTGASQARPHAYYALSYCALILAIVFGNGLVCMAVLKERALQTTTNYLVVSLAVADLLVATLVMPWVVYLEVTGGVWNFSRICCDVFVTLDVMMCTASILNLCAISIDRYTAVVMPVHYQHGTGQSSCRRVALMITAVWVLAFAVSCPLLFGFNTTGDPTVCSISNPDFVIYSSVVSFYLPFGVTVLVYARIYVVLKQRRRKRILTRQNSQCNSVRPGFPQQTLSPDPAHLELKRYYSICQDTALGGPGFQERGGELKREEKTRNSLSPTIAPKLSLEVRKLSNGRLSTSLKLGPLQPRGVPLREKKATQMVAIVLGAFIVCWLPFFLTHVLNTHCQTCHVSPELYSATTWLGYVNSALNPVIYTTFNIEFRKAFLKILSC

D3 [%] [1] [%]	D4.4 [%] (receptors D4.4)	5-HT2A [%] (5-HT2A receptor; [3])	5-HT2C [%] (5-HT2C receptor)	5-HT6 [%] (5-HT6 receptor; [3])	5-HT7 [%] (5-HT7 receptor)	M3 [%] (M3 muscarinic receptors)	H1 [%] [2] [%]	Compound	inhibition at 1 µM [1] [%]	inhibition at 1 µM (receptors D4.4) [%]	Ki (5-HT2A receptor) [nM]	inhibition at 1 µM (5-HT2C receptor) [%]	inhibition at 1 µM (5-HT6 receptor; [3]) [%]	Ki (5-HT6 receptor) [nM]	inhibition at 1 µM (5-HT7 receptor) [%]	inhibition at 1 µM (M3 muscarinic receptors) [%]	inhibition at 1 µM [2] [%]	inhibition at 1 µM (5-HT2A receptor; [3]) [%]
–	–	–	–	–	–	–	–	O=S(=O)(N[C@H]1CCN(CCCc2noc3cc(F)ccc23)C1)c1cc2ccc(Cl)cc2s1 [Compound 199, 6-Chloro-N-[(3S)-1-[3-(6-fluoro-1,2-benzoxazol-3-yl)propyl]pyrrolidin-3-yl]benzothiophene-2-sulphonamide]	88	69	0.7	83	91	99	94	38	58	–
–	–	–	–	–	–	–	–	Cn1ccc2cc(S(=O)(=O)NC3CCN(CCCc4noc5cc(F)ccc45)C3)ccc21 (stereo not shown) [Compound 218, N-[1-[3-(6-Fluoro-1,2-benzoxazol-3-yl)propyl]pyrrolidin-3-yl]-1-methyl-indole-5-sulphonamide]	95	86	–	82	95	–	98	0	77	100
–	–	–	–	–	–	–	–	Cc1c(S(=O)(=O)NC2CCN(CCCc3noc4cc(F)ccc34)C2)sc2ccc(F)cc12 (stereo not shown) [Compound 28, 5-Fluoro-N-[1-[3-(6-fluoro-1,2-benzoxazol-3-yl)propyl]pyrrolidin-3-yl]-3-methyl-benzothiophene-2-sulphonamide]	96	75	–	72	96	–	94	13	63	101
–	–	–	–	–	–	–	–	O=S(=O)(N[C@@H]1CCN(CCCc2noc3cc(F)ccc23)C1)c1cc2ccccc2s1 [Compound 196, N-[(3R)-1-[3-(6-Fluoro-1,2-benzoxazol-3-yl)propyl]pyrrolidin-3-yl]benzo-thiophene-2-sulphonamide]	94	78	0.4	86	99	6.4	101	11	84	100
–	–	–	–	–	–	–	–	O=S(=O)(N[C@H]1CCN(CCCc2noc3cc(F)ccc23)C1)c1cc2ccccc2s1 [Compound 197, N-[(3S)-1-[3-(6-Fluoro-1,2-benzoxazol-3-yl)propyl]pyrrolidin-3-yl]benzo-thiophene-2-sulphonamide]	83	81	0.7	84	97	16	101	26	76	99
–	–	–	–	–	–	–	–	O=S(=O)(NC1CN(CCOc2cccc3[nH]ccc23)C1)c1ccc2ccccc2c1 [Compound 50, N-[1-[2-(1H-Indol-4-yloxy)ethyl]azetidin-3-yl]naphthalene-2-sulphonamide]	104	94	–	54	43	–	99	2	34	97
–	–	–	–	–	–	–	–	O=S(=O)(N[C@@H]1CCN(CCCc2noc3cc(F)ccc23)C1)c1cc2ccc(Cl)cc2s1 [Compound 198, 6-Chloro-N-[(3R)-1-[3-(6-fluoro-1,2-benzoxazol-3-yl)propyl]pyrrolidin-3-yl]benzothiophene-2-sulphonamide]	97	48	0.7	86	97	8.6	93	37	81	–
75	39	72	50	29	99	1	34	Cc1cccc(S(=O)(=O)NC2CN(CCOc3cccc4c3OCCO4)C2)c1 [Compound 93, N-[1-[2-(2,3-Dihydro-1,4-benzodioxan-8-yloxy)ethyl]azetidin-3-yl]-3-methyl-benzenesulphonamide]	–	–	–	–	–	–	–	–	–	–
–	–	–	–	–	–	–	–	Cc1cc(S(=O)(=O)NC2CCN(CCCc3noc4cc(F)ccc34)C2)c(C)s1 (stereo not shown) [Compound 221, N-[1-[3-(6-Fluoro-1,2-benzoxazol-3-yl)propyl]pyrrolidin-3-yl]-2,5-dimethyl-thiophene-3-sulphonamide]	92	93	–	81	92	–	95	12	66	101
–	–	–	–	–	–	–	–	COc1ccc2cc(S(=O)(=O)N[C@H]3CCN(CCCc4noc5cc(F)ccc45)C3)ccc2c1 [Compound 231, N-[(3S)-1-[3-(6-Fluoro-1,2-benzoxazol-3-yl)propyl]pyrrolidin-3-yl]-6-methoxy-naphthalene-2-sulphonamide]	91	89	1.9	75	86	79	88	22	54	–
–	–	–	–	–	–	–	–	O=S(=O)(NCC1CN(CCOc2cccc3c2OCCO3)C1)c1cc2ccccc2o1 [Compound 186, N-[[1-[2-(2,3-Dihydro-1,4-benzodioxin-5-yloxy)ethyl]azetidin-3-yl]methyl]-benzofuran-2-sulphonamide]	78	55	–	79	32	–	97	-9	17	87
–	–	–	–	–	–	–	–	O=S(=O)(NC1CCN(CCCc2noc3cc(F)ccc23)C1)c1cc2ccc(F)cc2s1 (stereo not shown) [Compound 234, 6-Fluoro-N-[1-[3-(6-fluoro-1,2-benzoxazol-3-yl)propyl]pyrrolidin-3-yl]benzothiophene-2-sulphonamide]	94	70	–	86	98	–	97	17	75	100
